Assay results taken from US4788206A, “Pentadieneamides” (Hoffmann-La Roche Inc., priority 1987, dated 1988).

Columns and labels:
[1] = target: T1, PAF Binding, dog platelets (Canis lupus familiaris, UniProt A0A8I3NSH0); test: PAF Binding Assay (inhibition of 3H-PAF binding to washed dog platelets); conditions: dog platelets, 3H-PAF, 10 minutes at room temperature; read-out: Inhib of PAF Binding IC50
T1 construct: Washed platelets were prepared by resuspending the platelet pellet once with PBS containing 1 mM EDTA; from tissue; host or cells: washed platelets from dog blood
T1 sequence (A0A8I3NSH0 1-343): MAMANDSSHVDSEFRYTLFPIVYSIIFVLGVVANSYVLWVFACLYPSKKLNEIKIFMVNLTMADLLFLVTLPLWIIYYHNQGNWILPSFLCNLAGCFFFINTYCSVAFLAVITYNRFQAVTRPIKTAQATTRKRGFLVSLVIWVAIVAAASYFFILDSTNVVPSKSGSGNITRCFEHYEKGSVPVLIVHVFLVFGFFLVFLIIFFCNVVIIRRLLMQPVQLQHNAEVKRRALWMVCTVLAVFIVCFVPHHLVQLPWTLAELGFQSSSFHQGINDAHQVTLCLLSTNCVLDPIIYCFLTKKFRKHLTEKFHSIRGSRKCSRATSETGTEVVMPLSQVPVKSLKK
Summary of the method: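 Washed dog platelets (2×10^7 per tube, in 0.1% BSA-PBS) incubated 10 min at room temperature with 3H-PAF and test analogs. Bound ligand separated by 1 min centrifugation through silicone oil; platelet pellet radioactivity counted by liquid scintillation.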

[2] = tested on: PAF-Induced Platelet Count Decrease; test: PAF Induced Platelet Count Decrease; assay type: in vivo, guinea pig; conditions: for inhibition in vivo at 3 mg/kg: Cavia porcellus, Platelet, read-out: Percent Inhib. of PAF-Induced Platelet Count Decrease, 3 mg/Kg; for inhibition in vivo at 3 mg/kg / Percent Inhib. of PAF-Induced Platelet Count Decrease, 3 mg/Kg: 3 mg/Kg (route not given)
Protocol: PAF Induced Platelet Count Decrease
Male Hartley guinea pigs weighing between 500 and 900 grams were fed standard guinea pig chow and tap water ad libitum. PAF was solubilized in ethanol and stored as a 2 mM stock solution at -70° C. The stock solutuion of PAF was diluted to 1 pM in Tris buffer pH 7.4 and 0.1% BSA for all experiments.
(a) Intravenous Procedure
Guinea pigs were anesthetized with urethane (1.6 g/kg, i.p.). A catheter (PE50) was introduced into the right carotid artery for withdrawing blood. A second catheter PE10) was introduced into the jugular vein for injecting drugs and for administering the PAF challenge (75 ng/kg, i.v.). A control blood sample was obtained and platelets were counted in a whole blood platelet analyzer. PAF was then given and blood samples were taken 15, 30, and 60 seconds after the challenge for platelet counts. Fifteen minutes later, selected concentrations of the test compound were solubilized in DMSO and injected intravenously into a group of 4-6 animals. Only one concentration of antagonist was used in each animal group. Fifteen minutes after drug injection, blood smaples were taken before and 15, 30, and 60 sec after the PAF challenge, and analyzed for platelet number.
Animals were anesthetized with sodium pentobarbital (35 mg/kg. i.p.) and the caritoid artery and jugular vein were cannulated as described above. The cannulae were exteriorized at the base of the neck and the animals were allowed to recover. At least 18 hours after surgery, conscious unrestrained guinea pigs were used in the experiment. The animals were challenged two time with PAF (120 ng/kg. i.v.); the first to establish a consistent response to PAF and the second to serve as a control for the PAF challenge. Blood samples were taken before and 15, 30, and 45 seconds after PAF challenge and platelets were counted. Thirty minutes after the control PAF challenge, the animal were orally dosed with either gum acacia or the test compound. Animals were then challenged with PAF at 1, 3, 5, and 24 hours after the administration of the drug.
Data Analysis and Statistics
The % change, i.e., the difference in platelet number before and after PAF challenge was calculated by: [formula]
Statistical significance (p<0.05) of the difference between the mean PAF control and mean drug treated activity was determined with paried Students's t-test.

[3] = tested on: PAF-Induced Bronchoconstriction; test: PAF Induced Bronchoconstriction Assay; assay type: in vivo, guinea pig; conditions: for inhibition in vivo at 50 mg/kg: Cavia porcellus, po, 2-hour pretreatment, read-out: Percent Inhib. of PAF-Induced Bronchoconstriction, 50 mg/Kg p.o.; for Percent Inhib. of PAF-Induced Bronchoconstriction, mg/Kg i.v.: i.v. (dose not given), 1 minute pretreatment, PAF 1.0 μg/kg i.v.
Summary of the method: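 Male Hartley guinea pigs, urethane-anesthetized (2 g/kg i.p.), ventilated, with succinylcholine 1.2 mg/kg i.v. and propranolol 0.1 mg/kg i.v. pretreatment. Compound given i.v. 1 min or by oral gavage 2 h before i.v. PAF challenge at 1.0 μg/kg. Peak tracheal pressure rise over baseline compared with control mean gives % inhibition.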

| Compound | IC50 [1] [µM] | inhibition in vivo at 3 mg/kg [2] [%] | inhibition in vivo at 50 mg/kg ([3]; 50 mg/Kg p.o.) [%] | Percent Inhib. of PAF-Induced Platelet Count Decrease, 3 mg/Kg [2] | Percent Inhib. of PAF-Induced Bronchoconstriction, mg/Kg i.v. [3] [%] | Percent Inhib. of PAF-Induced Platelet Count Decrease, 3 mg/Kg (1 min) ([2]; 3 mg/Kg, (1 min)) [%] | Percent Inhib. of PAF-Induced Platelet Count Decrease, 30 mg/Kg p.o. ([2]; 30 mg/Kg p.o.) [%] | Percent Inhib. of PAF-Induced Bronchoconstriction, 50 mg/Kg p.o. (6 hr) ([3]; 50 mg/Kg p.o., (6 hr)) [%] |
| --- | --- | --- | --- | --- | --- | --- | --- | --- |
| COc1cccc(/C(=C/C=C/C(=O)NCCCCc2cccnc2)c2ccccc2)c1 [(2E,4E)-5-(3-Methoxyphenyl)-5-phenyl-N-[4-(3-pyridinyl)butyl]-2,4-pentadienamide] | 0.02 | 40 | 13 ± 18 | – | – | – | – | – |
| COc1cccc(/C(=C\C=C\C(=O)NCCCCc2cccnc2)c2cccc(F)c2)c1 [(2E,4E)-5-(3-fluorophenyl)-5-(3-methoxyphenyl)-N-[4-(3-pyridinyl)butyl]-2,4-pentadienamide] | 0.025 | – | 25 ± 14 | inactive | 88 ± 4 | – | – | – |
| COc1cccc(/C(=C/C=C/C(=O)NCCCCc2cccnc2)c2cccc(F)c2)c1 [(2E,4Z)-5-(3-fluorophenyl)-5-(3-methoxyphenyl)-N-[4-(3-pyridinyl)butyl]-2,4-pentadienamide] | 0.04 | – | 1 ± 8 | – | 90 ± 5 | 67 | – | – |
| COc1cccc(/C(=C\C=C\C(=O)NCCCCc2cccnc2)c2ccccc2)c1 [(2E,4Z)-5-(3-methoxyphenyl)-5-phenyl-N-[4-(3-pyridinyl)butyl]-2,4-pentadienamide] | 0.035 | – | 10 ± 10 | inactive | – | – | – | – |
| O=C(/C=C/C=C(c1ccccc1)c1ccccc1)NCCCCc1cccnc1 [(E)-5,5-Diphenyl-N-[4-(3-pyridinyl)butyl]-2,4-pentadienamide] | 0.055 | 14 | 12 ± 1 | – | 35 ± 15 | – | – | – |
| O=C(/C=C/C=C(c1cccc(Cl)c1)c1cccc(Cl)c1)NCCCCc1cccnc1 [(E)-5,5-bis(3-chlorophenyl)-N-[4-(3-pyridinyl)butyl]-2,4-pentadienamide] | – | 21 | 35 ± 7 | – | 76 ± 14 | – | – | – |
| C[C@H](CCCc1cccnc1)NC(=O)/C=C/C=C(c1ccc(F)cc1)c1ccc(F)cc1 [[R-(E)]-5,5-bis (4-fluorophenyl)-N-[1-methyl-4-(3-pyridinyl)butyl]-2,4-pentadienamide] | – | 11 | 53 ± 11 | – | 70 ± 9 | – | – | – |
| C[C@H](CCCc1cccnc1)NC(=O)/C=C/C=C(c1cccc(F)c1)c1cccc(F)c1 [[R-(E)]-5,5-bis(3-fluorophenyl)-N-[1-methyl-4-(3-pyridinyl)butyl]-2,4-pentadienamide] | – | 17 | 91 ± 5 | – | 73 ± 6 | – | – | – |
| COc1ccc(C(=C/C=C/C(=O)N[C@H](C)CCCc2cccnc2)c2ccc(OC)cc2)cc1 [[R-(E)]-5,5-bis(4-methoxyphenyl)-N-[1-methyl-4-(3-pyridinyl)butyl]-2,4-pentadienamide] | – | 85 | 97 ± 2 | – | 87 ± 4 | – | 81 | – |
| CCC/C(=C\C=C\C(=O)N[C@H](C)CCCc1cccnc1)c1ccc(OC)cc1 [[R-(E,E)]-5-(4-methoxyphenyl)-N-[1-methyl-4-(3-pyridinyl)butyl]-2,4-octadienamide] | 0.05 | – | 9 ± 13 | – | 86 ± 7 | – | – | – |
| COc1ccc(/C=C/C=C/C(=O)N[C@H](C)CCCc2cccnc2)cc1 [[R-(E,E)]-5-(4-methoxyphenyl)-N-[1-methyl-4-(3-pyridinyl)butyl]-2,4-pentadienamide] | 0.03 | – | – | – | 17 ± 13 | – | – | – |
| CCCCCCCC/C(=C\C=C\C(=O)N[C@H](C)CCCc1cccnc1)c1ccc(OC)cc1 [[R-(E,E)]-5-(4-methoxyphenyl)-N-[1-methyl-4-(3-pyridinyl)butyl]-2,4-tridecadienamide] | 0.005 | – | 84 ± 8 | – | 98 ± 1 | – | – | – |
| CCCCCC/C(=C\C=C\C(=O)N[C@H](C)CCCc1cccnc1)c1ccc(OC)cc1 [[R-(E,E)]-5-(4-methoxyphenyl)-N-[1-methyl-4-(3-pyridinyl)butyl]-2,4-undecadienamide] | 0.009 | – | 96 ± 1 | – | 100 ± 1 | – | – | – |
| COc1ccc(/C(=C/C=C/C(=O)N[C@H](C)CCCc2cccnc2)C2CCCCC2)cc1 [[R-(E,E)]-5-cyclohexyl-5-(4-methoxyphenyl)-N-[1-methyl-4-(3-pyridinyl)butyl]-2,4-pentadienamide] | 0.02 | – | 97 ± 1 | – | 73 ± 17 | – | – | 12 ± 10 |
| COc1ccc(/C(=C/C=C/C(=O)N[C@H](C)CCCc2cccnc2)C2CC2)cc1 [[R-(E,E)]-5-cyclopropyl-5-(4-methoxyphenyl)-N-[1-methyl-4-(3-pyridinyl)butyl]-2,4-pentadienamide] | 0.05 | – | – | – | 35 ± 5 | – | – | – |
| C[C@@H](CCCc1cccnc1)NC(=O)/C=C/C=C(c1cccc(F)c1)c1cccc(F)c1 [[S-(E)]-5,5-bis(3-fluorophenyl)-N-[1-methyl-4-(3-pyridinyl)butyl]-2,4-pentadienamide] | – | 19 | 46 ± 8 | – | 34 ± 7 | – | – | – |
| COc1ccc(C(=C/C=C/C(=O)N[C@@H](C)CCCc2cccnc2)c2ccc(OC)cc2)cc1 [[S-(E)]-5,5-bis(4-Methoxyphenyl)-N-[1-methyl-4-(3-pyridinyl)butyl]-2,4-pentadienamide] | – | 42 | 90 ± 6 | – | 42 ± 13 | – | – | – |
| CC[C@@H](CCCc1cccnc1)NC(=O)/C=C/C=C(c1ccc(OC)cc1)c1ccc(OC)cc1 [[S-(E)]-N-[1-ethyl-4-(3-pyridinyl)butyl]-5,5-bis (4-methoxyphenyl)-2,4-pentadienamide] | 0.4 | – | – | – | 44 ± 8 | – | – | – |
| CCCCC/C(=C\C=C\C(=O)N[C@@H](C)CCCc1cccnc1)c1ccc(OC)cc1 [[S-(E,E)]-5-(4-methoxyphenyl)-N-[1-methyl-4-(3-pyridinyl)butyl]-2,4-decadienamide] | 0.12 | – | 25 ± 13 | – | 46 ± 16 | – | – | – |
